US12291519B2, “2-hydroxycycloalkane-1-carbamoyl” (Idorsia Pharmaceuticals Ltd, priority 2019, dated 2025)

Assays:
human Gal-1 (hGal-1) = experiment: Competitive binding assay: biotinylated hGal-1 binding to microplate-adsorbed asialofetuin (ASF); details: Activity on hGal-1; binding of biotinylated hGal-1 to ASF-coated plates; mean values
Outline: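 Biotinylated hGal-1 (300–1000 ng/mL; optionally a cysteine-free all-serine variant) incubated 3 h at 4 °C with compound on asialofetuin-coated plates, then streptavidin-peroxidase 1 h at 4 °C. ABTS readout at OD 410 nm after 30–45 min; IC50 given as mean of several runs.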

human Gal-3 (hGal-3) = human Gal-3 (hGal-3) (Homo sapiens (Human), UniProt P17931); experiment: Competitive binding assay: biotinylated hGal-3 binding to microplate-adsorbed asialofetuin (ASF); details: Activity on hGal-3; binding of biotinylated hGal-3 to ASF-coated plates; mean values
Outline: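 Serially diluted compounds competed with biotinylated human Gal-3 for binding to plate-adsorbed asialofetuin over 3 h at 4 °C. Bound Gal-3 was detected with streptavidin-peroxidase (80 ng/mL, 1 h, 4 °C) and ABTS substrate. IC50 values are means of several measurements.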

human Gal-3 (hGal-3), sequence (P17931 whole entry): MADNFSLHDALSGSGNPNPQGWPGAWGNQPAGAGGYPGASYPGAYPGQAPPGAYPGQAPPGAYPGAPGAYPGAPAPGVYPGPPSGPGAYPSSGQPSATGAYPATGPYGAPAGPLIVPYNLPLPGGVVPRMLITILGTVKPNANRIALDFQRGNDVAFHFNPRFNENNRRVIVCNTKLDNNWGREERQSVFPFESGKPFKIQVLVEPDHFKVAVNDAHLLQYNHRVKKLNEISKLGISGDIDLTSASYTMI
human Gal-1 (hGal-1), sequence (P09382 2-135 limits assumed): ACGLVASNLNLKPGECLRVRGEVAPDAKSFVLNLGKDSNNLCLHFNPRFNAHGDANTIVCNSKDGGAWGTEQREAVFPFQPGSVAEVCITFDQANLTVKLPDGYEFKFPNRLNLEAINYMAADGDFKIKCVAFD

| Structure (SMILES) | IC50 (human Gal-1 (hGal-1)) | IC50 (human Gal-3 (hGal-3)) |
| --- | --- | --- |
| CC(=O)O[C@@H]1[C@@H](n2cc(-c3cc(F)c(F)c(F)c3)nn2)[C@@H](O)[C@@H](CO)O[C@H]1C(=O)N(Cc1ccnn1C)[C@H]1CCCC[C@@H]1O [Example 43, (2R,3R,4S,5R,6R)-5-hydroxy-2-(((1S,2S)-2-hydroxycyclohexyl)((1-methyl-1H-pyrazol-5-yl)methyl)carbamoyl)-6-(hydroxymethyl)-4-(4-(3,4,5-trifluorophenyl)-1H-1,2,3-triazol-1-yl)tetrahydro-2H-pyran-3-yl acetate] | 2670 nM | 76 nM |
| CO[C@@H]1[C@@H](n2cc(-c3cc(F)c(F)c(F)c3)nn2)[C@@H](O)[C@@H](CO)O[C@H]1C(=O)N(Cc1ccnn1C(C)C)[C@H]1CCCC[C@@H]1O [Example 45, (2R,3R,4S,5R,6R)-5-hydroxy-N-((1S,2S)-2-hydroxycyclohexyl)-6-(hydroxymethyl)-N-((1-isopropyl-1H-pyrazol-5-yl)methyl)-3-methoxy-4-(4-(3,4,5-trifluorophenyl)-1H-1,2,3-triazol-1-yl)tetrahydro-2H-pyran-2-carboxamide] | 1430 nM | 421 nM |
| CO[C@@H]1[C@@H](n2cc(-c3cc(F)c(F)c(F)c3)nn2)[C@@H](O)[C@@H](CO)O[C@H]1C(=O)N(Cc1cc2ccccc2n1C)[C@H]1CCCC[C@@H]1O [Example 48, (2R,3R,4S,5R,6R)-5-hydroxy-N-((1S,2S)-2-hydroxycyclohexyl)-6-(hydroxymethyl)-3-methoxy-N-((1-methyl-1H-indol-2-yl)methyl)-4-(4-(3,4,5-trifluorophenyl)-1H-1,2,3-triazol-1-yl)tetrahydro-2H-pyran-2-carboxamide] | 2240 nM | 344 nM |
| CC(=O)O[C@@H]1[C@@H](n2cc(-c3cc(F)cc(F)c3)nn2)[C@@H](O)[C@@H](CO)O[C@H]1C(=O)N(Cc1ccnn1C)[C@H]1CCCC[C@@H]1O [Example 49, (2R,3R,4S,5R,6R)-4-(4-(3,5-difluorophenyl)-1H-1,2,3-triazol-1-yl)-5-hydroxy-2-(((1S,2S)-2-hydroxycyclohexyl)((1-methyl-1H-pyrazol-5-yl)methyl)carbamoyl)-6-(hydroxymethyl)tetrahydro-2H-pyran-3-yl acetate] | 1940 nM | 129 nM |
| CC(=O)O[C@@H]1[C@@H](n2cc(-c3cc(F)c(Cl)c(F)c3)nn2)[C@@H](O)[C@@H](CO)O[C@H]1C(=O)N(Cc1ccnn1C)[C@H]1CCCC[C@@H]1O [Example 50, (2R,3R,4S,5R,6R)-4-(4-(4-chloro-3,5-difluorophenyl)-1H-1,2,3-triazol-1-yl)-5-hydroxy-2-(((1S,2S)-2-hydroxycyclohexyl)((1-methyl-1H-pyrazol-5-yl)methyl)carbamoyl)-6-(hydroxymethyl)tetrahydro-2H-pyran-3-yl acetate] | 7580 nM | 53 nM |
| CC(=O)O[C@@H]1[C@@H](n2cc(-c3cc(F)c(C)c(F)c3)nn2)[C@@H](O)[C@@H](CO)O[C@H]1C(=O)N(Cc1ccnn1C)[C@H]1CCCC[C@@H]1O [Example 51, (2R,3R,4S,5R,6R)-4-(4-(3,5-difluoro-4-methylphenyl)-1H-1,2,3-triazol-1-yl)-5-hydroxy-2-(((1S,2S)-2-hydroxycyclohexyl)((1-methyl-1H-pyrazol-5-yl)methyl)carbamoyl)-6-(hydroxymethyl)tetrahydro-2H-pyran-3-yl acetate] | 11200 nM | 58 nM |
| CC(=O)O[C@@H]1[C@@H](n2cc(-c3cccc(F)c3)nn2)[C@@H](O)[C@@H](CO)O[C@H]1C(=O)N(Cc1ccnn1C)[C@H]1CCCC[C@@H]1O [Example 52, (2R,3R,4S,5R,6R)-4-(4-(3-fluorophenyl)-1H-1,2,3-triazol-1-yl)-5-hydroxy-2-(((1S,2S)-2-hydroxycyclohexyl)((1-methyl-1H-pyrazol-5-yl)methyl)carbamoyl)-6-(hydroxymethyl)tetrahydro-2H-pyran-3-yl acetate] | 1600 nM | 191 nM |
| CO[C@@H]1[C@@H](n2cc(-c3cc(F)c(F)c(F)c3)nn2)[C@@H](O)[C@@H](CO)O[C@H]1C(=O)N(Cc1cccc(Cl)c1)[C@H]1CCCC[C@@H]1O [Example 53, (2R,3R,4S,5R,6R)-N-(3-chlorobenzyl)-5-hydroxy-N-((1S,2S)-2-hydroxycyclohexyl)-6-(hydroxymethyl)-3-methoxy-4-(4-(3,4,5-trifluorophenyl)-1H-1,2,3-triazol-1-yl)tetrahydro-2H-pyran-2-carboxamide] | 10800 nM | 868 nM |
| CO[C@@H]1[C@@H](n2cc(-c3cc(F)c(F)c(F)c3)nn2)[C@@H](O)[C@@H](CO)O[C@H]1C(=O)N(Cc1cccc(Cl)c1)[C@H]1CCCC[C@@H]1O [Example 54] | 2660 nM | 20 nM |
| CO[C@@H]1[C@@H](n2cc(-c3cc(F)c(F)c(F)c3)nn2)[C@@H](O)[C@@H](CO)O[C@H]1C(=O)N(Cc1nc2ccccc2cc1Cl)[C@H]1CCCC[C@@H]1O [Example 65, (2R,3R,4S,5R,6R)-N-((3-chloroquinolin-2-yl)methyl)-5-hydroxy-N-((1S,2S)-2-hydroxycyclohexyl)-6-(hydroxymethyl)-3-methoxy-4-(4-(3,4,5-trifluorophenyl)-1H-1,2,3-triazol-1-yl)tetrahydro-2H-pyran-2-carboxamide] | 6770 nM | 196 nM |

The next compounds have a lower IC50 (human Gal-1 (hGal-1)) than those just listed; values first:

| IC50 (human Gal-1 (hGal-1)) | IC50 (human Gal-3 (hGal-3)) | Structure (SMILES) |
| --- | --- | --- |
| 1040 nM | 151 nM | CO[C@@H]1[C@@H](n2cc(-c3cc(F)c(F)c(F)c3)nn2)[C@@H](O)[C@@H](CO)O[C@H]1C(=O)N(Cc1cc(C)nn1C)[C@H]1CCCC[C@@H]1O [Example 47, (2R,3R,4S,5R,6R)-N-((1,3-dimethyl-1H-pyrazol-5-yl)methyl)-5-hydroxy-N-((1S,2S)-2-hydroxycyclohexyl)-6-(hydroxymethyl)-3-methoxy-4-(4-(3,4,5-trifluorophenyl)-1H-1,2,3-triazol-1-yl)tetrahydro-2H-pyran-2-carboxamide] |
| 1020 nM | 138 nM | CC(=O)O[C@@H]1[C@@H](n2cc(-c3cc(F)cc(F)c3)nn2)[C@@H](O)[C@@H](CO)O[C@H]1C(=O)N(Cc1ccccc1C(F)(F)F)[C@H]1CCCC[C@@H]1O [Example 63, (2R,3R,4S,5R,6R)-4-(4-(3,5-difluorophenyl)-1H-1,2,3-triazol-1-yl)-5-hydroxy-2-(((1S,2S)-2-hydroxycyclohexyl)(2-(trifluoromethyl)benzyl)carbamoyl)-6-(hydroxymethyl)tetrahydro-2H-pyran-3-yl acetate] |
| 980 nM | 123 nM | COc1cnc2ccc(F)c(CN(C(=O)[C@@H]3O[C@H](CO)[C@H](O)[C@H](n4cc(-c5cc(F)c(F)c(F)c5)nn4)[C@H]3OC)[C@H]3CCCC[C@@H]3O)c2n1 [Example 64, (2R,3R,4S,5R,6R)-N-((6-fluoro-3-methoxyquinoxalin-5-yl)methyl)-5-hydroxy-N-((1S,2S)-2-hydroxycyclohexyl)-6-(hydroxymethyl)-3-methoxy-4-(4-(3,4,5-trifluorophenyl)-1H-1,2,3-triazol-1-yl)tetrahydro-2H-pyran-2-carboxamide] |
| 974 nM | 179 nM | CCn1nccc1CN(C(=O)[C@@H]1O[C@H](CO)[C@H](O)[C@H](n2cc(-c3cc(F)c(F)c(F)c3)nn2)[C@H]1OC)[C@H]1CCCC[C@@H]1O [Example 44, (2R,3R,4S,5R,6R)-N-((1-ethyl-1H-pyrazol-5-yl)methyl)-5-hydroxy-N-((1S,2S)-2-hydroxycyclohexyl)-6-(hydroxymethyl)-3-methoxy-4-(4-(3,4,5-trifluorophenyl)-1H-1,2,3-triazol-1-yl)tetrahydro-2H-pyran-2-carboxamide] |
| 939 nM | 141 nM | CC(=O)O[C@@H]1[C@@H](n2cc(-c3cccc(F)c3)nn2)[C@@H](O)[C@@H](CO)O[C@H]1C(=O)N(Cc1ccccc1C(F)(F)F)[C@H]1CCCC[C@@H]1O [Example 62, (2R,3R,4S,5R,6R)-4-(4-(3-fluorophenyl)-1H-1,2,3-triazol-1-yl)-5-hydroxy-2-(((1S,2S)-2-hydroxycyclohexyl)(2-(trifluoromethyl)benzyl)carbamoyl)-6-(hydroxymethyl)tetrahydro-2H-pyran-3-yl acetate] |
| 828 nM | 31 nM | CC(=O)O[C@@H]1[C@@H](n2cc(-c3cc(F)c(F)c(F)c3)nn2)[C@@H](O)[C@@H](CO)O[C@H]1C(=O)N(Cc1ccccc1C(F)(F)F)[C@H]1CCCC[C@@H]1O [Example 55, (2R,3R,4S,5R,6R)-5-hydroxy-2-(((1S,2S)-2-hydroxycyclohexyl)(2-(trifluoromethyl)benzyl)carbamoyl)-6-(hydroxymethyl)-4-(4-(3,4,5-trifluorophenyl)-1H-1,2,3-triazol-1-yl)tetrahydro-2H-pyran-3-yl acetate] |
| 729 nM | 21 nM | CO[C@@H]1[C@@H](n2cc(-c3cc(F)c(F)c(F)c3)nn2)[C@@H](O)[C@@H](CO)O[C@H]1C(=O)N(c1cccc(Cl)c1)[C@H]1CCCC[C@@H]1O [Example 58] |
| 665 nM | 16 nM | CO[C@@H]1[C@@H](n2cc(-c3cc(F)c(F)c(F)c3)nn2)[C@@H](O)[C@@H](CO)O[C@H]1C(=O)N(c1cc(Cl)cc(Cl)c1)[C@H]1CCCC[C@@H]1O [Example 60] |
| 497 nM | 160 nM | CO[C@@H]1[C@@H](n2cc(-c3cc(F)c(F)c(F)c3)nn2)[C@@H](O)[C@@H](CO)O[C@H]1C(=O)N(Cc1ccnn1CC1CC1)[C@H]1CCCC[C@@H]1O [Example 46, (2R,3R,4S,5R,6R)-N-((1-(cyclopropylmethyl)-1H-pyrazol-5-yl)methyl)-5-hydroxy-N-((1S,2S)-2-hydroxycyclohexyl)-6-(hydroxymethyl)-3-methoxy-4-(4-(3,4,5-trifluorophenyl)-1H-1,2,3-triazol-1-yl)tetrahydro-2H-pyran-2-carboxamide] |
| 417 nM | 42 nM | CO[C@@H]1[C@@H](n2cc(-c3cc(F)c(F)c(F)c3)nn2)[C@@H](O)[C@@H](CO)O[C@H]1C(=O)N(c1ccc(F)c(F)c1)[C@H]1CCCC[C@@H]1O [Example 56] |
